The compounds below were run against TACE (Homo sapiens (Human), UniProt P78536) (assay: TACE inhibition test (in vitro)). Conditions: fluorescent synthetic substrate, 37° C., 1.5 hours.
Assay type: biochemical
Procedure: The nucleotide sequence of TACE has been reported by Moss et al. (Moss, M. L. et al., Nature 1997, 385, 733-736). Accordingly, the cDNA of TACE was obtained according to the prescribed method from THP-1 cells or the like, and then incorporated the cDNA into an expression vector. Next, this vector was transformed into mammalian cells or insect cells, and TACE expression was obtained.
The TACE inhibition test was carried out by measuring TACE activity in the presence and the absence of the test substance using the thus-obtained TACE as an enzyme, and a fluorescent synthetic substrate Nma(N-methylanthranilic acid)-Leu-Ala-Gln-Ala-Val-Arg-Ser-Ser-Lys(Dnp(dinitrophenyl))-D-Arg-NH2 (SEQ ID NO: 1) including the TACE-cleaved sequence of a membrane-bound TNF as a substrate. The TACE inhibition test method is shown below.
Namely, 90 μL of an enzyme solution prepared with an assay buffer A (50 mM tris-hydrochloric acid buffer (pH 7.5) including 200 mM sodium chloride, 5 mM calcium chloride, 10 μM zinc sulfate, and 2 mg/mL bovine serum albumin) and 90 μL of a fluorescent synthetic substrate prepared with an assay buffer B (50 mM tris-hydrochloric acid buffer (pH 7.5) including 200 mM sodium chloride, 5 mM calcium chloride, 10 μM zinc sulfate, and 0.05% PLURONIC F-68) were mixed together, and reacted at 37° C. for 1.5 hours. Enzyme activity was then determined by measuring with a fluorescence intensity meter (Labsystems, Fluoroskan Ascent) at an excitation wavelength of 355 nm and a measurement wavelength of 460 nm.
From the enzyme activity in the presence or the absence of the test substance, the inhibition rate was determined, and the 50% inhibitiory concentration (IC50) of the test substance was calculated.

TACE, sequence (P78536 215-824): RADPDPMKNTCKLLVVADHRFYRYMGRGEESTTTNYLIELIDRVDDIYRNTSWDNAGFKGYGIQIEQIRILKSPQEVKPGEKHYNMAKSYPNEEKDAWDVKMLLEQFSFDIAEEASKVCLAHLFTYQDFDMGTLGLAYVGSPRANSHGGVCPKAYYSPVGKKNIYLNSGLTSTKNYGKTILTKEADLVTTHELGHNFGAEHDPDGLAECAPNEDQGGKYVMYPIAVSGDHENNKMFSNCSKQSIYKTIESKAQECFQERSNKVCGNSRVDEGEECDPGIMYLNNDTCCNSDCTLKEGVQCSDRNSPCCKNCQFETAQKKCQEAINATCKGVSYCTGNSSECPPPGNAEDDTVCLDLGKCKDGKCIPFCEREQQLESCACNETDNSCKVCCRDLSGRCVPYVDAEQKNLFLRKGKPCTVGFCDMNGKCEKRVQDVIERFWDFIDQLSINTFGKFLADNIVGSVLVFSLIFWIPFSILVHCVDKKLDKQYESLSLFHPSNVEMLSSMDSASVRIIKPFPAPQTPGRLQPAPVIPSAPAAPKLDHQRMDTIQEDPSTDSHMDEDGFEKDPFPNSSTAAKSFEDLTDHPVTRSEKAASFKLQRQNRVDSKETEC

IC50, < 100 nM:
COc1ccc(C2(Cn3cccc(C)c3=O)NC(=O)NC2=O)cc1 (centres unmarked) [Compound I-2, 5-(4-methoxyphenyl)-5-[(3-methyl-2-oxopyridin-1(2H)-yl)methyl]imidazolidine-2,4-dione]
Cc1cccn(CC2(c3ccc(C#N)cc3)NC(=O)NC2=O)c1=O (centres unmarked) [Compound I-3, 4-{4-[(3-methyl-2-oxopyridin-1(2H)-yl)methyl]-2,5-dioxoimidazolidine-4-yl}benzonitrile]
COc1cccc(C2(Cn3cccc(C)c3=O)NC(=O)NC2=O)c1 (centres unmarked) [Compound I-4, 5-(3-methoxyphenyl)-5-[(3-methyl-2-oxopyridin-1(2H)-yl)methyl]imidazolidine-2,4-dione]
Cc1cccn(CC2(c3ccsc3)NC(=O)NC2=O)c1=O (centres unmarked) [Compound I-5, 5-[(3-methyl-2-oxopyridin-1(2H)-yl)methyl]-5-(thiophen-3-yl)imidazolidine-2,4-dione]
Cc1cccn(CC2(c3cc4ccccc4o3)NC(=O)NC2=O)c1=O (centres unmarked) [Compound I-6, 5-(benzofuran-2-yl)-5-[(3-methyl-2-oxopyridin-1(2H)-yl)methyl]imidazolidine-2,4-dione]
Cc1cccn(CC2(c3ccccn3)NC(=O)NC2=O)c1=O (centres unmarked) [Compound I-7, 5-[(3-methyl-2-oxopyridin-1(2H)-yl)methyl]-5-(pyridin-2-yl)imidazolidine-2,4-dione]
Cc1cccn(CC2(c3cccnc3)NC(=O)NC2=O)c1=O (centres unmarked) [Compound I-8, 5-[(3-methyl-2-oxopyridin-1(2H)-yl)methyl]-5-(pyridin-3-yl)imidazolidine-2,4-dione]
Cc1cccn(CC2(c3ccc(Br)cc3)NC(=O)NC2=O)c1=O (centres unmarked) [Compound I-11, 5-(4-bromophenyl)-5-[(3-methyl-2-oxopyridin-1(2H)-yl)methyl]imidazolidine-2,4-dione]
COc1cc(C2(Cn3cccc(C)c3=O)NC(=O)NC2=O)ccc1F (centres unmarked) [Compound I-12, 5-(4-fluoro-3-methoxyphenyl)-5-[(3-methyl-2-oxopyridin-1(2H)-yl)methyl]imidazolidine-2,4-dione]
COCOc1ccc(C2(Cn3cccc(C)c3=O)NC(=O)NC2=O)cc1 (centres unmarked) [Compound I-13, 5-[4-(methoxymethoxy)phenyl]-5-[(3-methyl-2-oxopyridin-1(2H)-yl)methyl]imidazolidine-2,4-dione]
COc1ccc(C2(Cn3cccc(C)c3=O)NC(=O)NC2=O)cc1F (centres unmarked) [Compound I-14, 5-(3-fluoro-4-methoxyphenyl)-5-[(3-methyl-2-oxopyridin-1(2H)-yl)methyl]imidazolidine-2,4-dione]
Cc1cccn(CC2(c3ccc(F)cc3)NC(=O)NC2=O)c1=O (centres unmarked) [Compound I-15, 5-(4-fluorophenyl)-5-[(3-methyl-2-oxopyridin-1(2H)-yl)methyl]imidazolidine-2,4-dione]
COc1ccc(C2(Cn3cccc(C)c3=O)NC(=O)NC2=O)cc1OC (centres unmarked) [Compound I-16, 5-(3,4-dimethoxyphenyl)-5-[(3-methyl-2-oxopyridin-1(2H)-yl)methyl]imidazolidine-2,4-dione]
Cc1cccn(CC2(c3ccc(C(C)(C)C)cc3)NC(=O)NC2=O)c1=O (centres unmarked) [Compound I-17, 5-[4-(tert-butyl)phenyl]-5-[(3-methyl-2-oxopyridin-1(2H)-yl)methyl]imidazolidine-2,4-dione]
COc1ccc(C2(Cn3cccc(C)c3=O)NC(=O)NC2=O)c(OC)c1 (centres unmarked) [Compound I-18, 5-(2,4-dimethoxyphenyl)-5-[(3-methyl-2-oxopyridin-1(2H)-yl)methyl]imidazolidine-2,4-dione]
Cc1cccn(CC2(c3cccc(C(F)(F)F)c3)NC(=O)NC2=O)c1=O (centres unmarked) [Compound I-19]
COc1ccc(OC)c(C2(Cn3cccc(C)c3=O)NC(=O)NC2=O)c1 (centres unmarked) [Compound I-20, 5-(2,5-dimethoxyphenyl)-5-[(3-methyl-2-oxopyridin-1(2H)-yl)methyl]imidazolidine-2,4-dione]
